# Reference: patent publication EP4559908A1, “HETEROARYL DERIVATIVE COMPOUND AND USE THEREOF” (S2CBio Inc., priority 2022, dated 2024)
# Like-named read-outs stand apart in the source and are kept apart here.
# Target: T1, human ANO6 (variant 5) (Homo sapiens, UniProt Q4KMQ2)
# T1 construct: expressed in transfected cells; host or cells: Fischer rat thyroid (FRT) cells
# T1 sequence (Q4KMQ2 1-931 isoform Q4KMQ2-2): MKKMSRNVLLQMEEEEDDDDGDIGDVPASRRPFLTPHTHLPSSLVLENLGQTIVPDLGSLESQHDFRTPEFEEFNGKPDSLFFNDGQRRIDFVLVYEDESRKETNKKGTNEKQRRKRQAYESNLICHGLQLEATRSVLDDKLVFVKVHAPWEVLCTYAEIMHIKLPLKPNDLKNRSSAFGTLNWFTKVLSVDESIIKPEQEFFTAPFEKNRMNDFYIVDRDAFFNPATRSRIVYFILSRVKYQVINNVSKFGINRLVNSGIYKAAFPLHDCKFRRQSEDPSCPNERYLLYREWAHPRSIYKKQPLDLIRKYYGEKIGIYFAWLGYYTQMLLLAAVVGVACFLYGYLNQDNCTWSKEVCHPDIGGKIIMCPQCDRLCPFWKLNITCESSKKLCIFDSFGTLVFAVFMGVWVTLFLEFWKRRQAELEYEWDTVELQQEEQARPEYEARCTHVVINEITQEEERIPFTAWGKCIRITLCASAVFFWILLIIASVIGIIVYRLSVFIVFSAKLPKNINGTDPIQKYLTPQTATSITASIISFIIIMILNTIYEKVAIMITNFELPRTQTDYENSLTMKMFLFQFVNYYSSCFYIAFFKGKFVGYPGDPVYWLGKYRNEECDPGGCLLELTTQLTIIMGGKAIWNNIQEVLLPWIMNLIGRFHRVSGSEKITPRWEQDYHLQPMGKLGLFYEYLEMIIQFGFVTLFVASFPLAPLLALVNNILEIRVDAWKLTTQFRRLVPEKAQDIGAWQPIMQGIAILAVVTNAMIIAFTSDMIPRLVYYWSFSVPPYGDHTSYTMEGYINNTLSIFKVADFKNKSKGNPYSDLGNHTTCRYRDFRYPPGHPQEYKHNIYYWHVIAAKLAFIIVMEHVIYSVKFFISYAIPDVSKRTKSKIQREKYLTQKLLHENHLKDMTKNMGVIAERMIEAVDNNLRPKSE
# Assay: Lact C2 assay (measuring phosphatidylserine externalization scramblase function)
# Format: cell-based
# Details: FRT; for inhibition at 1 µM: read-out: % Inhibition 1 µM; for inhibition at 0.05 µM: read-out: % Inhibition 50 nM
# In short: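 Cells were pretreated 10 min with compound (50 nM, 100 nM, 1 µM; 1% DMSO), then given 10 µM ionomycin for 10 min. Surface phosphatidylserine was stained with 500 nM Lact-C2-GFP (10 min, 37 °C), fixed and imaged. Inhibition was scaled between untreated (100%) and ionomycin-alone (0%) wells.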
# [1] = compound 1 µM, FRT cells expressing human ANO6 (variant 5), ionomycin 10 µM, Lact-C2-GFP fluorescence, average of three tests
# [2] = compound 50 nM, FRT cells expressing human ANO6 (variant 5), ionomycin 10 µM, Lact-C2-GFP fluorescence, average of three tests
inhibition at 1 µM [1] [%],inhibition at 0.05 µM [2] [%],SMILES,inhibition at 0.05 µM [%],inhibition at 1 µM [%]
30 to 60,–,"c1cc(Nc2ccc(-c3ccncn3)nn2)cc(-c2nc3ccccc3[nH]2)c1 [Example 257, N-(3-(1H-benzo[d]imidazol-2-yl)phenyl)-6-(pyrimidin-4-yl)pyridazin-3-amine]",–,–
> 60,> 60,"Fc1cccc(-c2cnc(Nc3cccc(-c4nc5ccc(C(F)(F)F)cc5[nH]4)c3)nc2)n1 [Example 258, 5-(6-fluoropyridin-2-yl)-N-(3-(6-(trifluoromethyl)-1H-benzo[d]imidazol-2-yl)phenyl)pyrimidin-2-amine]",–,–
> 60,30 to 60,"Fc1cccc(-c2cnc(Nc3cccc(-c4nc5ccccc5[nH]4)c3)nc2)n1 [Example 259, N-(3-(1H-benzo[d]imidazol-2-yl)phenyl)-5-(6-fluoropyridin-2-yl) pyrimidin-2-amine]",–,–
> 60,30 to 60,"Fc1ccc(-c2cnc(Nc3cccc(-c4nc5ccc(C(F)(F)F)cc5[nH]4)c3)nc2)nc1 [Example 260, 5-(5-fluoropyridin-2-yl)-N-(3-(6-(trifluoromethyl)-1H-benzo[d]imidazol-2-yl)phenyl)pyrimidin-2-amine]",–,–
> 60,30 to 60,"FC(F)(F)c1ccc2nc(-c3ccnc(Nc4ccc(-c5cccnn5)cc4)c3)[nH]c2c1 [Example 261, N-(4-(pyridazin-3-yl)phenyl)-4-(6-(trifluoromethyl)-1H-benzo[d]imidazol-2-yl) pyridin-2-amine]",–,–
–,> 60,"FC(F)(F)c1ccc2nc(-c3cncc(Nc4ccc(-c5cccnn5)cc4)c3)[nH]c2c1 [Example 262, N-(4-(pyridazin-3-yl)phenyl)-5-(6-(trifluoromethyl)-1H-benzo[d]imidazol-2-yl)pyridin-3-amine]",–,–
30 to 60,–,"FC(F)(F)c1ccc2nc(-c3cc(Nc4ccc(-c5cccnn5)cc4)ccn3)[nH]c2c1 [Example 263, N-(4-(pyridazin-3-yl)phenyl)-2-(6-(trifluoromethyl)-1H-benzo[d]imidazol-2-yl)pyridin-4-amine]",–,–
–,> 60,"Fc1ccc(-c2ccc(Nc3cccc(-c4nc5ccc(C(F)(F)F)cc5[nH]4)c3)cc2)nn1 [Example 264, N-(4-(6-fluoropyridazin-3-yl)phenyl)-3-(6-(trifluoromethyl)-1H-benzo[d]imidazol-2-yl) aniline]",–,–
–,> 60,"Fc1ccc(-c2ccc(Nc3cccc(-c4nc5ccccc5[nH]4)c3)cc2)nn1 [Example 265, 3-(1H-benzo[d]imidazol-2-yl)-N-(4-(6-fluoropyridazin-3-yl)phenyl)aniline]",–,–
> 60,30 to 60,"Fc1cc(-c2cccnn2)ccc1Nc1cccc(-c2nc3ccccc3[nH]2)c1 [Example 269, N-(3-(1H-benzo[d]imidazol-2-yl)phenyl)-2-fluoro-4-(pyridazin-3-yl)aniline]",–,–
–,> 60,"Fc1cc(Nc2cccc(-c3nc4ccccc4[nH]3)c2)ccc1-c1cccnn1 [Example 270, N-(3-(1H-benzo[d]imidazol-2-yl)phenyl)-3-fluoro-4-(pyridazin-3-yl)aniline]",–,–
30 to 60,–,"c1ccc(-c2cnc(Nc3cccc(-c4nc5ccccc5[nH]4)c3)nn2)cc1 [Example 271, N-(3-(1H-benzo[d]imidazol-2-yl)phenyl)-6-phenyl-1,2,4-triazin-3-amine]",–,–
> 60,–,"FC(F)(F)c1ccccc1-c1ccc(Nc2cccc(-c3nc4ccccc4[nH]3)c2)cc1 [Example 272, N-(3-(1H-benzo[d]imidazol-2-yl)phenyl)-2'-(trifluoromethyl)-[1,1'-biphenyl]-4-amine]",–,–
> 60,–,"COc1ccc(-c2ccc(Nc3cccc(-c4nc5ccccc5[nH]4)c3)cc2)nn1 [Example 275, 3-(1H-benzo[d]imidazol-2-yl)-N-(4-(6-methoxypyridazin-3-yl)phenyl)aniline]",–,–
–,> 60,"c1ccc(-c2cnc(Nc3cccc(-c4nc5ccccc5[nH]4)c3)cn2)nc1 [Example 276, N-(3-(1H-benzo[d]imidazol-2-yl)phenyl)-5-(pyridin-2-yl)pyrazin-2-amine]",–,–
–,> 60,"c1cc(Nc2cnc(-c3ccncn3)cn2)cc(-c2nc3ccccc3[nH]2)c1 [Example 277, N-(3-(1H-benzo[d]imidazol-2-yl)phenyl)-5-(pyrimidin-4-yl)pyrazin-2-amine]",–,–
–,> 60,"COc1ccc(-c2ccc(Nc3cccc(-c4nc5ccc(C(F)(F)F)cc5[nH]4)c3)cc2)nn1 [Example 278, N-(4-(6-methoxypyridazin-3-yl)phenyl)-3-(6-(trifluoromethyl)-1H-benzo[d]imidazol-2-yl)aniline]",–,–
30 to 60,–,"CNc1ccc2nc(-c3cccc(Nc4ccc(-c5cccnn5)cc4)c3)[nH]c2c1 [Example 279, N-methyl-2-(3-((4-(pyridazin-3-yl)phenyl)amino)phenyl)-1H-benzo[d]imidazol-6-amine]",–,–
–,–,"CN(Cc1ccccc1)c1ccc2nc(-c3cccc(Nc4ccc(-c5cccnn5)cc4)c3)[nH]c2c1 [Example 280, N-benzyl-N-methyl-2-(3-((4-(pyridazin-3-yl)phenyl)amino)phenyl)-1H-benzo[d]imidazol-6-amine]",30 to 60,> 60
> 60,> 60,"Fc1cc2[nH]c(-c3cccc(Nc4ccc(-c5ccccn5)cn4)c3)nc2cn1 [Example 281, N-(3-(6-fluoro-1H-imidazo[4,5-c]pyridin-2-yl)phenyl)-[2,3'-bipyridin]-6'-amine]",–,–
> 60,30 to 60,"Clc1cc2[nH]c(-c3cccc(Nc4ccc(-c5ccccn5)cn4)c3)nc2cn1 [Example 282, N-(3-(6-chloro-1H-imidazo[4,5-c]pyridin-2-yl)phenyl)-[2,3'-bipyridin]-6'-amine]",–,–
> 60,> 60,"Fc1cc2nc(-c3cccc(Nc4ccc(-c5ccccn5)cn4)c3)[nH]c2cc1F [Example 283, N-(3-(5,6-difluoro-1H-benzo[d]imidazol-2-yl)phenyl)-[2,3'-bipyridin] -6'-amine]",–,–
> 60,> 60,"FC(F)Oc1ccc2nc(-c3cccc(Nc4ccc(-c5ccccn5)cn4)c3)[nH]c2c1 [Example 284, N-(3-(6-(difluoromethoxy)-1H-benzo[d]imidazol-2-yl)phenyl)-[2,3'-bipyridin]-6'-amine]",–,–
> 60,> 60,"FC(F)Oc1ccc2nc(-c3cccc(Nc4ncc(-c5ccccn5)cn4)c3)[nH]c2c1 [Example 285, N-(3-(6-(difluoromethoxy)-1H-benzo[d]imidazol-2-yl)phenyl)-5-(pyridin-2-yl)pyrimidin-2-amine]",–,–
> 60,–,"Fc1cc2[nH]c(-c3cccc(Nc4ncc(-c5ccccn5)cn4)c3)nc2cn1 [Example 286, N-(3-(6-fluoro-1H-imidazo[4,5-c]pyridin-2-yl)phenyl)-5-(pyridin-2-yl)pyrimidin-2-amine]",–,–
30 to 60,–,"FC(F)Oc1ccc2nc(-c3cccc(Nc4ncc(-c5cccnn5)cn4)c3)[nH]c2c1 [Example 287, N-(3-(6-(difluoromethoxy)-1H-benzo[d]imidazol-2-yl)phenyl)-5-(pyridazin-3-yl)pyrimidin-2-amine]",–,–
30 to 60,–,"FC(F)(F)c1cccc2nc(-c3cccc(Nc4ncc(-c5cccnn5)cn4)c3)[nH]c12 [Example 289, 5-(pyridazin-3-yl)-N-(3-(7-(trifluoromethyl)-1H-benzo[d]imidazol-2-yl)phenyl)pyrimidin-2-amine]",–,–
30 to 60,–,"Fc1cccc2nc(-c3cccc(Nc4ncc(-c5cccnn5)cn4)c3)[nH]c12 [Example 290, N-(3-(7-fluoro-1H-benzo[d]imidazol-2-yl)phenyl)-5-(pyridazin-3-yl)pyrimidin-2-amine]",–,–
30 to 60,–,"Fc1cc(F)c2[nH]c(-c3cccc(Nc4ncc(-c5cccnn5)cn4)c3)nc2c1 [Example 292, N-(3-(5,7-difluoro-1H-benzo[d]imidazol-2-yl)phenyl)-5-(pyridazin-3-yl)pyrimidin-2-amine]",–,–
> 60,30 to 60,"FC(F)(F)c1cc2nc(-c3cccc(Nc4ncc(-c5cccnn5)cn4)c3)[nH]c2cc1Cl [Example 294, N-(3-(6-chloro-5-(trifluoromethyl)-1H-benzo[d]imidazol-2-yl)phenyl)-5-(pyridazin-3-yl)pyrimidin-2-amine]",–,–
